Test results taken from paper PMC12557367, ““Precision on Two Wheels”–Structural Refinement of ^64Cu- and ^68Ga-Labeled Bicyclic Peptides Targeting Nectin‑4 for Improved Tumor Imaging: From Preclinical Development to First-in-Human Application” (Journal of Medicinal Chemistry, 2025).

What was measured:
[1] = target: T1, recombinant human nectin-4 (Homo sapiens, UniProt Q96NY8); assay: Fluorescence anisotropy (FA) direct binding of fluorescent probes; conditions: 1 nM probe
T1 construct: close to the value determined for the complete extracellular domain of nectin-4 (0.94 nM); purchased R&D Systems 2659-N4
T1 sequence (Q96NY8 32-349 limits assumed): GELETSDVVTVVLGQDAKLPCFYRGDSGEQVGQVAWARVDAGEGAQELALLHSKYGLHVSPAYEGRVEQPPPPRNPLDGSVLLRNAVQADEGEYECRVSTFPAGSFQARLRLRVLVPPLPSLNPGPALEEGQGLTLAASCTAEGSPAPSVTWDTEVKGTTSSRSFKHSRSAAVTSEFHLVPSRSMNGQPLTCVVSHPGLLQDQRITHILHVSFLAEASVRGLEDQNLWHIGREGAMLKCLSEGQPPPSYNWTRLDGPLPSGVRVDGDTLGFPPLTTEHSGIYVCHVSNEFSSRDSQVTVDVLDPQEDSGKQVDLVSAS
Excerpt: For characterizing the binding affinity of the bicyclic peptides toward nectin-4, we envisaged a fluorescence anisotropy-based competitive binding assay. Mudd et al. also used such an assay for the development of the bicycle drug conjugate BT8009. Herein, the peptidic scaffold of BT8009 was used as a basis for the required fluorescent nectin-4-ligand (probe) with either 6-TAMRA (1a) or 6-FAM (1b) being attached at the N-terminal Cys residue. […] In this context, the binding of the probe to nectin-4 was started by the addition of nectin-4, followed by continuous fluorescence measurements over 20 min. It is worth noting that a slight initial increase in the FA values could be observed for both probes (FA values at <300 s in Figure S1); however, this putative time-dependent association appeared to be too fast to analyze it. […]
All measurements were conducted at 37 °C over 1200 s (interval of 37 s) using a Cytation 5 multimode microplate reader (BioTek Instruments, Software Gen 5) and black 96-well microplates (BRANDplates with F-bottom wells). […] The FA (r) was calculated by Gen 5 software from the measured parallel and perpendicular fluorescence intensities (I ∥ and I ⊥, respectively) according to eq using a G factor of 0.87 (preset value). r=I∥−G×I⊥/I∥+2G×I⊥ 1 […]

HT-1376 cells = assay: Flow cytometry with fluorescent probe; type: cell-based, human; conditions: 1 µM probe, on ice 1 h; 5637 cells as negative
Method: For flow cytometry analysis, HT-1376 and 5637 cells were rinsed with PBS three times and dissociated from a flask by using 50 mM EDTA and a cell scraper. Aliquots of the cell suspension containing 1 × 10^6 cells were pelleted at 300×g for 7 min, and one pellet of each cell line was dissolved in fresh PBS + 3% BSA containing 1 μM of probe 1b. As a negative control, one HT-1376 pellet was dissolved only in PBS + 3% BSA. The cells were incubated on ice for 1 h before they were pelleted again. The staining solution was discarded, and the pellet was washed in 1 mL of PBS + 0.5% BSA + 2 mM EDTA (FACS wash buffer) and centrifuged again. The washing step was repeated a total of three times. After the last wash, the pellets were dissolved in 500 μL of FACS wash buffer and analyzed with an Attune NxT Flow Cytometer (Invitrogen). For the detection, the BL1 laser with an excitation of 488 nm and an emission filter of 530/30 nm set to a Voltage of 270 was used. The forward scatter was set to a voltage of 80 or 120, and the sideward scatter was set to 320 or 370 for HT-1376 or 5637 cells, respectively. A sample of 50 μL was analyzed at a speed of 100 μL/min, leading to a total of 35410 and 34992 analyzed events (singlets) for HT-1376 and 5637 cells, respectively.

`CSCC[C@@H]1NC(=O)[C@@H]2CSCCC(=O)N3CN(CN(C3)C(=O)CCSC[C@H](NC(=O)c3ccc(C(=O)O)c(-c4c5ccc(=O)cc-5oc5cc(O)ccc45)c3)C(=O)N3CCC[C@H]3C(=O)N[C@@H](Cc3cccc4ccccc34)C(=O)N[C@H](CC(=O)O)C(=O)N2)C(=O)CCSC[C@@H](C(N)=O)NC(=O)[C@H](Cc2c[nH]c3ccccc23)NC(=O)[C@@H]2C[C@@H](O)CN2C(=O)[C@@H]2CCCN2C(=O)[C@H]([C@@H](C)O)NC(=O)[C@H](CO)NC(=O)[C@H](Cc2c[nH]c3ccccc23)NC(=O)[C@H](CC(=O)O)NC(=O)[C@H](CCCCNC(=N)N)NC1=O` [1b] was tested, and the “dynamic range (ΔFA = mA of bound probe – mA of free probe)” value [1] was 86 (±7) mA and the “binding of probe to cells (FACS)” value (HT-1376 cells) was “Nectin-4-specific binding”.
